In article PMC6259748, “Selection of Peptides Targeting Helix 31 of Bacterial 16S Ribosomal RNA by Screening M13 Phage-Display Libraries” (Molecules, 2011):

Assays:
[1] = tested on: translation of green fluorescent protein (GFP); experiment: coupled in vitro transcription-translation inhibition assay (GFP); assay type: biochemical, E. coli; details: for inhibition of in vitro protein synthesis: cell-free translation, summary statement; for GFP fluorescence lower compared to DIRTQRE: peptide 1 mM, at 120 min, ex 487 nm; for order of translation inhibition by peptides (from high to low) / inhibitory effect on protein translation: peptides at 1 mM, GFP fluorescence; for inhibitory effect on protein translation: in words
Method: A cell-free translation assay was used to test the potential inhibitory effects of the peptides on protein synthesis. Different concentrations of peptides were added to E. coli S30 extracts and the extent of inhibition was monitored by the measurement of green fluorescent protein (GFP) translation.
The inhibitory effects of selected peptides (DIRTQRE, CVRPFAL, FVRPFAL, TLWDLIP and TYLPWPA) on cellular processes were determined by in vitro coupled transcription-translation inhibition assay. The PURExpress™ in vitro protein synthesis kit #E6800S from New England Biolabs (Beverly, MA) was used for this purpose. A DNA template for GFP (pRSETEmGFP plasmid, Invitrogen) was employed at a concentration of 10 µg/mL in a 15 µL of reaction volume. Different concentrations of peptides were added, ranging from 300 µM to 2 mM. The DNA template was added only after mixing of the peptides or streptomycin so that they could bind to their target region first. For the control, streptomycin was added at a final concentration of 300 µM. The reaction was incubated in 384-well, Costar, clear-well, black plates and in situ incubated at 37 °C in a Gemini XPS microplate spectrofluorometer (Molecular Devices, Sunnyvale, CA) and the amount of GFP produced was monitored at different time intervals from 0 min to 2 h by fluorescence (excitation at 487 nm, emission at 509 nm).

[2] = tested on: GFP-S11-labeled 30S subunits; experiment: ribosome-binding assay on Tentagel beads; set-up: species or system E. coli; details: for order of binding preference by the 30S subunits (from high to low): fluorescence microscopy, pH 7.3; for fluorescence on beads after 30S binding: peptide on Tentagel beads, 30S subunits overnight at 4 °C, 20 mM HEPES, pH 7.3, 10 mM MgCl2, 100 mM KCl, duplicate
Method: The purpose of this experiment was to determine whether the selected peptides have affinity for bacterial ribosomes. The binding affinities of various peptides could also be compared by this method. Small ribosomal subunits, 30S, labeled with GFP on ribosomal protein S11 were added to peptides covalently attached to Tentagel beads (Figure 4A). […] The peptides were chemically synthesized on Tentagel beads with their N-termini exposed. Increasing concentrations of GFP-tagged 30S subunits were added to the Tentagel-bound peptides and unbound 30S subunits were removed by washing. Relative fluorescence intensity of the 30S subunits bound to the peptides on bead was determined by imaging on a fluorescence microscope, with the assumption that the level of fluorescence on the beads was proportional to the affinity of the ribosome for the peptide sequence.
Four peptides isolated from the phage-display experiment, […], DIRTQRE, TLWDLIP, and […], were synthesized on Tentagel (Rapp Polymer, Tübingen, Germany) beads using standard Fmoc synthesis. The beads were stored in DMF until use. The beads were then washed three times with 450 μl of water, and three times with 450 μL of the binding buffer B (binding buffer: 20 mM HEPES, pH 7.3, 10 mM MgCl2, 100 mM KCl), using 0.45 μm MWCO Nanosep (Pall Corporation, Ann Arbor, MI). The beads were then centrifuged at 6,000 rpm for 1–2 min.
Fluorescently labeled 30S subunits were isolated by sucrose gradient centrifugation in 5 mM Mg^2+ [82]. For control experiments, His(6)-EmGFP-S11 was purified using IMAC resin (Bio-Rad, Hercules, CA) and the fluorescence was assayed using beads carrying peptides with ribosomes, beads carrying peptides with His(6)-EmGFP-S11 (no ribosomes) and beads only with ribosomes (no peptides).
The fluorescent ribosomes were incubated in binding buffer B (20 mM HEPES, pH 7.3, 10 mM MgCl2, 100 mM KCl) at 37 °C for 30 min. Next, 25 pmoles of ribosome solution was added to each peptide, and the mixture was incubated overnight at 4 °C with agitation. Unbound ribosomes were removed by two 450 μL washes with binding buffer B and centrifugation at 6,000 rpm for 1–2 min. The beads were resuspended in 40 μL of binding buffer B for microscope screening and kept on ice until scanning. The beads (20 μL) were spread on microscope slides for scanning (Olympus 1X71 microscope, TH4 100 Olympus lamp, Olympus UCMAD 3 camera, 20× magnification). An average of two pictures were taken per slide, eliminating beads presenting uneven swelling and cracks.

wild-type modified h31 = experiment: surface plasmon resonance (SPR), modified h31; assay type: binding, E. coli
Method: Modified h31 was labeled with biotin in order to immobilize the RNA onto a surface and determine the kinetics of peptide binding by surface plasmon resonance (SPR). […] In order to enhance the signal-to-noise ratio, a GFP-protein-fused peptide, TYLPWPA-GFP, was generated and used as the analyte.
Biotinylated, modified h31 RNA was immobilized onto a streptavidin-coated CM5 chip and differing concentrations of TYLPWPA-GFP (10–100 µM) were injected as the analyte. A range of salt concentrations, detergent levels, pH conditions, and flow rates were tested, since these factors affect the peptide-RNA complex formation (data not shown). The apparent dissociation constants were determined under the following optimized conditions: 10 mM Tris·HCl, 150 mM NaCl, 10 mM MgCl2, 1 mM dithiothreitol (DTT), 0.005% (v/v) P20 at pH 7.5 as the running buffer at a flow rate of 50 μL/min.
All immobilization and subsequent binding studies were performed using a BIAcore 2000 instrument set at a temperature of 25 °C. Standard dextran surface BIAcore sensorchips (Sensor chip CM5) were purchased from BIAcore (GE Healthcare, Piscataway, NJ). Standard desorb and sanitize routines were performed according to the BIAcore guidelines before docking a new CM5 sensor chip. All buffers were filtered through sterile 0.2 μm nylon membranes (Millipore™) under vacuum. Before derivatizing the flow cells with streptavidin, the CM5 sensor chip was pre-conditioned using three successive 10 μL injections of chip-preparation solution (10 mM NaOH, 500 mM NaCl) at 100 μL/min, followed by a normalization routine using BIAnormalizing solution (40% glycerol). Streptavidin derivatization was performed according to standard procedures.
Prior to immobilization, the solution of biotinylated RNA in HBS-EP buffer (10 mM HEPES, 3 mM EDTA, 150 mM NaCl, 0.005% P20 at pH 7.4) was renatured by heating to 90 °C for 2 min, cooling gradually to room temperature, and placing on ice. Flow cells were functionalized by injecting 30 μL of RNA at a time using the MANUAL INJECT command at a flow rate of 10 μL/min, until the desired immobilization level was reached. One of the flow cells was used to immobilize RNA, while the adjacent cell remained unmodified to serve as a blank-control for matrix effects. Levels of RNA captured were calculated by subtracting […] for each flow cell. After RNA immobilization, both flow cells were blocked with 100 μL of 1 mg/mL biotin at 5 μL/min.
For the SPR experiments, the peptides were cloned into plasmid pBacEmGH (Cunningham Lab, to be described elsewhere) under transcriptional regulation of a PBAD promoter. Upon induction with L-arabinose, the resulting construct produces a fusion protein in which the peptide is fused to the N-terminus of EmGFP containing a C-terminus 6 x His affinity tag (PEP-EmGFP-6 x His).
Peptide samples were prepared by serial dilutions from stock solutions. Dilutions were made in running buffer (10 mM Tris·HCl, 150 mM NaCl, 10 mM MgCl2, 1 mM DTT, 0.005% (v/v) P20 at pH 7.5). All procedures for binding were automated, as optimized methods using repetitive cycles of sample injection and regeneration. Typically, running buffer was injected for ~30 min prior to experiment to establish a stable baseline value. Peptide solutions (200 μL) were injected at a kinetic flow rate of 50 μL/min, using the KINJECT command. All peptide samples were injected from 7 mm plastic vials (BIAcore) that were capped with pierceable plastic-crimp-caps to minimize carry-over and sample evaporation. Samples were injected in order of increasing concentration. The surface was regenerated using 150 μL of 500 mM NaCl. The data were fit to a 1:1 binding Langmuir model using BIAevaluation 3.0 software. […]

[3] = tested on: CVRPFAL-GFP (synthetic fusion (expressed by L-arabinose induction)); experiment: SPR; details: m2G966; m5C967 (E. coli numbering); 5' phosphorothioate; SPR: 10 mM Tris-HCl pH 7.5, 150 mM NaCl, 10 mM MgCl2, 1 mM DTT, 0.005% P20, 50 uL/min, streptavidin-coated CM5 chip; CD: 10 mM sodium phosphate pH 7, 100 mM …
GFP (EmGFP) = experiment: SPR; details: m2G966; m5C967 (E. coli numbering); 5' phosphorothioate; SPR: 10 mM Tris-HCl pH 7.5, 150 mM NaCl, 10 mM MgCl2, 1 mM DTT, 0.005% P20, 50 uL/min, streptavidin-coated CM5 chip; CD: 10 mM sodium phosphate pH 7, 100 mM …
[4] = tested on: TLWDLIP-GFP (synthetic fusion (expressed by L-arabinose induction)); experiment: SPR; details: m2G966; m5C967 (E. coli numbering); 5' phosphorothioate; SPR: 10 mM Tris-HCl pH 7.5, 150 mM NaCl, 10 mM MgCl2, 1 mM DTT, 0.005% P20, 50 uL/min, streptavidin-coated CM5 chip; CD: 10 mM sodium phosphate pH 7, 100 mM …
[5] = tested on: TYLPWPA-GFP (synthetic fusion (expressed by L-arabinose induction)); experiment: SPR; details: m2G966; m5C967 (E. coli numbering); 5' phosphorothioate; SPR: 10 mM Tris-HCl pH 7.5, 150 mM NaCl, 10 mM MgCl2, 1 mM DTT, 0.005% P20, 50 uL/min, streptavidin-coated CM5 chip; CD: 10 mM sodium phosphate pH 7, 100 mM …
TYLPWPA peptide [6] = target: T1, TYLPWPA peptide (synthetic (phage display)); experiment: CD titration; 100 mM NaCl, 10 mM sodium phosphate, 0.1 mM Na2EDTA, pH 7.0, 25 C; apparent, poor fit; SPR: 10 mM Tris-HCl pH 7.5, 150 mM NaCl, 10 mM MgCl2, 1 mM DTT, 0.005% P20, 50 uL/min, streptavidin-coated CM5 chip; CD: 10 mM sodium phosphate pH 7, 100 mM NaCl, 0.1 mM Na2EDTA, 25 C; fluorescence: 10 mM HEPES pH 7.5, 50 mM NaCl, 1 mM Na2EDTA, 25 C; details: hairpin
T1 chain: TYLPWPA

TYLPWPA peptide [7] = target: T1, TYLPWPA peptide; experiment: fluorescence titration (quenching); 10 mM HEPES, 50 mM NaCl, 1 mM Na2EDTA, pH 7.5, 25 C; apparent, 7% signal change; SPR: 10 mM Tris-HCl pH 7.5, 150 mM NaCl, 10 mM MgCl2, 1 mM DTT, 0.005% P20, 50 uL/min, streptavidin-coated CM5 chip; CD: 10 mM sodium phosphate pH 7, 100 mM NaCl, 0.1 mM Na2EDTA, 25 C; fluorescence: 10 mM HEPES pH 7.5, 50 mM NaCl, 1 mM Na2EDTA, 25 C; details: label: 5'-fluorescein; hairpin

Molecule: [H]/N=C(/N)N[C@H]1[C@H](O)[C@@H](O)[C@H](O[C@@H]2O[C@@H](C)[C@](O)(C=O)[C@H]2O[C@@H]2O[C@@H](CO)[C@H](O)[C@@H](O)[C@@H]2NC)[C@@H](N/C(N)=N\[H])[C@@H]1O [Streptomycin, streptomycin, reference compound]
- inhibition of GFP translation ([1]; 300 µM, positive control, 37 °C, fluorescence ex 487 nm, em 509 nm): completely inhibited GFP translation

Molecule: CVRPFAL [heptapeptide from selection against modified h31 with unmodified h31 counter selection]
- inhibition of in vitro protein synthesis [1]: inhibit in vitro protein synthesis
- GFP fluorescence lower compared to DIRTQRE ([1]; em 509 nm): four
- order of translation inhibition by peptides (from high to low) ([1]; 37 °C): CVRPFAL ≈ FVRPFAL > TLWDLIP > TYLPWPA > DIRTQRE
- inhibitory effect on protein translation [1]: best inhibitory effects
- order of binding preference by the 30S subunits (from high to low) ([2]; Tentagel beads): TYLPWPA > CVRPFAL ≈ TLWDLIP > DIRTQRE
- fluorescence on beads after 30S binding [2]: Fluorescence is observed
- binding affinity to modified h31 (wild-type modified h31; in words, comparable to known antibiotics targeting 16S rRNA): high nM

Molecule: DIRTQRE [heptapeptide selected against wild-type modified h31]
- order of translation inhibition by peptides (from high to low) ([1]; 37 °C): CVRPFAL ≈ FVRPFAL > TLWDLIP > TYLPWPA > DIRTQRE
- order of binding preference by the 30S subunits (from high to low) ([2]; Tentagel beads): TYLPWPA > CVRPFAL ≈ TLWDLIP > DIRTQRE
- relative binding affinity to 30S subunits ([2]; Tentagel beads, quantified fluorescence, of the four peptides tested): lowest relative affinity
- fluorescence on beads after 30S binding [2]: Fluorescence is observed

Molecule: FVRPFAL [heptapeptide selected against wild-type modified h31]
- inhibition of in vitro protein synthesis [1]: promising results in the in vitro translation assay
- GFP fluorescence lower compared to DIRTQRE ([1]; em 509 nm): four
- order of translation inhibition by peptides (from high to low) ([1]; 37 °C): CVRPFAL ≈ FVRPFAL > TLWDLIP > TYLPWPA > DIRTQRE
- inhibitory effect on protein translation [1]: best inhibitory effects

Molecule: GUUCGAUGCAACGCGAAC [modified h31 (wild-type), biotinylated]
- Kd [3]: 0.23 µM
- Kd (GFP (EmGFP)): 20 µM
- Kd [4]: 0.33 µM
- Kd [5]: 28 µM

Molecule: TYLPWPA-GFP
- ka (association rate constant) (wild-type modified h31; 1:1 Langmuir, 10 mM Tris·HCl, 150 mM NaCl, 10 mM MgCl2, 1 mM DTT, 0.005% P20, pH 7.5, 50 μL/min, 25 °C, CM5 chip): (1.50 ± 0.02) × 10^2 M^-1s^-1
- kd (dissociation rate constant) (wild-type modified h31; 1:1 Langmuir, pH 7.5, 150 mM NaCl, 10 mM MgCl2, 50 μL/min, 25 °C, CM5 chip): (4.2 ± 0.04) × 10^-3 s^-1
- KD (kd/ka) (wild-type modified h31; SPR kinetic analysis, 1:1 Langmuir, pH 7.5, 150 mM NaCl, 10 mM MgCl2, 50 μL/min, 25 °C, TYLPWPA-GFP 10–100 µM): 28 ± 1 µM

Molecule: GUUCGAUGCAACGCGAAC (structured_RNA, m2G966; m5C967 (E. coli numbering)) [modified h31 (wild-type), unlabeled]
- Kd (TYLPWPA peptide [6]): 28 ± 10 µM

Molecule: GUUCGAUGCAACGCGAAC (structured_RNA, m2G966; m5C967 (E. coli numbering); 5' phosphorothioate) [F-h31 (modified h31, fluorescein)]
- Kd (TYLPWPA peptide [7]): 27 ± 4 µM
